Tested on: Colletotrichum gloeosporioides (CBS272.51)
Test: Agar plug bio-assay on YME agar, fungal colony radius towards Streptomyces or natamycin plug
Type: cell-based
Protocol: Three fungal plant pathogens were tested against the selected S. natalensis strains: Fusarium oxysporum f.sp. lycopersici (CBS414.90), Colletotrichum gloeosporioides (CBS272.51) and Alternaria alternata (CBS103.33). Fusarium oxysporum f.sp. lycopersici is a soil borne fungus causing yield loss in e.g. tomato crops (Fusarium Wilt). Colletotrichum gloeosporioides causes e.g. anthracnose, a plant disease recognizable by dark brown lesions on leaves and fruits. Alternaria alternata is a worldwide occurring saprophyte that can cause phytopathogenic reactions in economically important host plants. The selected S. natalensis strains were tested against these fungal plant pathogens as described below. Frozen vials (glycerol stocks) or freeze dried tubes from the selected S. natalensis strains were transferred to 100 ml baffled Erlenmeyer flasks containing 20 ml of Yeast Malt Extract broth (YME). Freeze dried tubes were resuspended in physiological saline and stored 1 hour at room temperature before they were transferred to the medium. The Erlenmeyer flasks were incubated in an incubator shaker for 3 days at 28° C. and 180 rpm. For each strain, 200 μl of liquid media was transferred to YME agar plates (90 mm petridishes containing 20 ml of media) and dispersed with the use of a sterile spreader onto the surface of the media). Subsequently, the agar plates were incubated for 4 days at 28° C. to enhance full colony coverage of the plate surface. The selected fungi were plated directly from a glycerol stock (200 μl) to YME agar and subsequently incubated for 4 days at 28° C. The bio-assay was done as follows. Overgrown Streptomyces and fungi plates made as described above were used to produce agar plugs. The plugs were made by cutting out the agar by using a sterile cork-borer (11 mm diameter) and subsequently removing it by a pre-sterilized spatula. Freshly produced non-inoculated YME agar plates were marked with a line on the back of the petridish. This line with a fixed length of 4 cm was placed in the middle of the petridish. Subsequently, a Streptomyces inoculated agar plug was transferred to the fresh YME agar plate at the left end of the line. The above-described “plug transfer” step was repeated for the respective fungi. The respective fungi plugs were placed at the right end of the line on the same YME agar plate. Each Streptomyces strain was challenged in triplicate against each fungus. For each tested fungus, a control sample was taken (in triplicate) by using a non-inoculated agar plug that was placed on the left side of the petridish. Next, the plates were placed with the plugs on top in an incubator. Subsequently, the plates were stored at 28° C. for 7 days. After 7 days the radius of the fungal colony was measured in the direction of the opposite agar plug (Streptomyces sample). This step was repeated for the control sample. The inhibition zone (in percentage) was calculated by using the following formula: 100%*(r0−r1)/r0 wherein r0 is the radius (in mm, corrected for the plug radius) of the fungal colony from the control sample and wherein r1 is the radius (in mm, corrected for the plug radius) of the fungal colony from the Streptomyces inhibited sample. Frozen vials (glycerol stocks) from the selected S. natalensis strains were transferred to 100 ml baffled Erlenmeyer flasks containing 20 ml of Yeast Malt Extract broth (YME). The Erlenmeyer flasks were incubated in an incubator shaker for 3 days at 28° C. and 180 rpm. For each strain, 200 μl of liquid media was transferred to YME agar plates and incubated for 4 days at 28° C. to enhance full colony coverage of the plate surface. Botrytis cinerea was plated directly from glycerol stock (100 μl) to YME agar and subsequently incubated for 9 days at 28° C. All other selected fungi were plated directly from a glycerol stock (200 μl) to YME agar and subsequently incubated for 4 days at 28° C. […]

In the case of C[C@@H]1C/C=C/C=C/C=C/C=C/[C@H](O[C@@H]2O[C@H](C)[C@@H](O)[C@H](N)[C@@H]2O)C[C@@H]2O[C@](O)(C[C@@H](O)C[C@H]3O[C@@H]3/C=C/C(=O)O1)C[C@H](O)[C@H]2C(=O)O [Natamycin, natamycin], the inhibition at 10 ppm (Colletotrichum gloeosporioides, CBS272, 168 h, Example 7, agar plug with 10 ppm natamycin, 5% w/w methanol, 7 days at 28° C., read-out: Average inhibition zone (in %)) is reported as 4%, the inhibition at 25 ppm (Colletotrichum gloeosporioides, CBS272, 168 h, Example 7, agar plug with 25 ppm natamycin, 5% w/w methanol, 7 days at 28° C., read-out: Average inhibition zone (in %)) is reported as 7% and the inhibition at 50 ppm (Colletotrichum gloeosporioides, CBS272, 168 h, Example 7, agar plug with 50 ppm natamycin, 5% w/w methanol, 7 days at 28° C., read-out: Average inhibition zone (in %)) is reported as 15%. For the same compound, the inhibition at 75 ppm (Colletotrichum gloeosporioides, CBS272, 168 h, Example 7, agar plug with 75 ppm natamycin, 5% w/w methanol, 7 days at 28° C., read-out: Average inhibition zone (in %)) was 18%, the inhibition at 100 ppm (Colletotrichum gloeosporioides, CBS272, 168 h, Example 7, agar plug with 100 ppm natamycin, 5% w/w methanol, 7 days at 28° C., read-out: Average inhibition zone (in %)) was 21% and the inhibition at 175 ppm (Colletotrichum gloeosporioides, CBS272, 168 h, Example 7, agar plug with 175 ppm natamycin, 5% w/w methanol, 7 days at 28° C., read-out: Average inhibition zone (in %)) was 25%. It also gave an inhibition at 250 ppm (Colletotrichum gloeosporioides, CBS272, 168 h, Example 7, agar plug with 250 ppm natamycin, 5% w/w methanol, 7 days at 28° C., read-out: Average inhibition zone (in %)) of 28%, an inhibition at 375 ppm (Colletotrichum gloeosporioides, CBS272, 168 h, Example 7, agar plug with 375 ppm natamycin, 5% w/w methanol, 7 days at 28° C., read-out: Average inhibition zone (in %)) of 35% and an inhibition at 500 ppm (Colletotrichum gloeosporioides, CBS272, 168 h, Example 7, agar plug with 500 ppm natamycin, 5% w/w methanol, 7 days at 28° C., read-out: Average inhibition zone (in %)) of 41%. For the same compound, the “natamycin concentration in agar plug giving similar inhibition zone as the S. natalensis ATCC-27448 agar plug” value (Example 7, 7 days at 28° C.) was “approximately 375 ppm”, the “Fungal radius (in mm)” value (Example 7, agar plug with 10 ppm natamycin, 5% w/w methanol, 7 days at 28° C.) was 44.3 mm and the “Fungal radius (in mm)” value (Example 7, agar plug with 25 ppm natamycin, 5% w/w methanol, 7 days at 28° C.) was 43.2 mm. For the same compound, the “Fungal radius (in mm)” value (Example 7, agar plug with 50 ppm natamycin, 5% w/w methanol, 7 days at 28° C.) was 39.3 mm, the “Fungal radius (in mm)” value (Example 7, agar plug with 75 ppm natamycin, 5% w/w methanol, 7 days at 28° C.) was 37.8 mm and the “Fungal radius (in mm)” value (Example 7, agar plug with 100 ppm natamycin, 5% w/w methanol, 7 days at 28° C.) was 36.7 mm. The “Fungal radius (in mm)” value (Example 7, agar plug with 175 ppm natamycin, 5% w/w methanol, 7 days at 28° C.) was 34.8 mm, the “Fungal radius (in mm)” value (Example 7, agar plug with 250 ppm natamycin, 5% w/w methanol, 7 days at 28° C.) was 33.2 mm and the “Fungal radius (in mm)” value (Example 7, agar plug with 375 ppm natamycin, 5% w/w methanol, 7 days at 28° C.) was 30.3 mm. The “Fungal radius (in mm)” value (Example 7, agar plug with 500 ppm natamycin, 5% w/w methanol, 7 days at 28° C.) was 27.3 mm.

Source: patent publication US20160100586A1, “MICROBIAL AGRICULTURE” (DSM IP ASSETS B.V., priority 2013, published 2016)
